# Data as given in ChEMBL document CHEMBL1649173, “Single-dose escalation and multiple-dose safety, tolerability, and pharmacokinetics of IDX899, a candidate human immunodeficiency virus type 1 nonnucleoside reverse transcriptase inhibitor, in healthy subjects” (Antimicrob Agents Chemother, 2009).
# Legend:
# [1] = tested on: Homo sapiens; experiment: Toxicity in healthy human assessed as incidence of pollakiuria at 400 mg, po bid and 800 mg, po qd for 7 days; format: organism-based; settings: in vivo, 168 h
# [2] = Half life in fed state female healthy human at 400 mg, po administered as single dose; format: ADME, organism-based; settings: in vivo
# [3] = Apparent total plasma clearance in fasted state healthy human at 400 mg, po administered as single dose; format: ADME, organism-based
# [4] = Tmax in fed state healthy human at 200 mg, po administered as single dose; format: ADME, organism-based; settings: in vivo
# [5] = Apparent total volume of distribution in healthy human at 800 mg, po qd after 7 days; format: ADME, organism-based; settings: in vivo, read-out: Vz/F
# [6] = Half life in fasted state healthy human at 50 mg, po administered as single dose; format: ADME, organism-based; settings: in vivo
# [7] = Half life in healthy human at 800 mg, po qd after 7 days; format: ADME, organism-based; settings: in vivo
# [8] = Tmax in healthy human at 800 mg, po qd after 7 days; format: ADME, organism-based; settings: in vivo
# [9] = AUC (0 to infinity) in fed state healthy human at 200 mg, po administered as single dose; format: ADME, organism-based; design: dose 200 mg, route oral, time infinity; settings: plasma
# [10] = Plasma concentration in fed state healthy human at 1200 mg, po administered as single dose after 24 hrs; format: ADME, organism-based
# [11] = species on record: Homo sapiens; experiment: Protein binding in human; format: ADME, organism-based; settings: in vivo
# [12] = Plasma concentration in fed state healthy human at 200 mg, po administered as single dose after 24 hrs; format: ADME, organism-based
# [13] = tested on: Homo sapiens; experiment: Toxicity in healthy human assessed as incidence of abnormal dreams at 400 mg, po bid and 800 mg, po qd for 7 days; format: organism-based; settings: in vivo, 168 h
# [14] = Apparent total plasma clearance in healthy human at 800 mg, po qd after 7 days; format: ADME, organism-based
# [15] = Plasma concentration in fasted state healthy human at 50 mg, po administered as single dose after 24 hrs; format: ADME, organism-based
# [16] = Half life in fed state healthy human at 400 mg, po administered as single dose; format: ADME, organism-based; settings: in vivo
# [17] = Apparent total plasma clearance in fed state healthy human at 800 mg, po administered as single dose; format: ADME, organism-based
# [18] = Apparent total plasma clearance in fed state female healthy human at 400 mg, po administered as single dose; format: ADME, organism-based
# [19] = AUC (0 to infinity) in fasted state healthy human at 400 mg, po administered as single dose; format: ADME, organism-based; design: dose 400 mg, time infinity, route oral; settings: plasma
# [20] = AUC (0 to infinity) in fasted state healthy human at 50 mg, po administered as single dose; format: ADME, organism-based; design: dose 50 mg, route oral, time infinity; settings: plasma
# [21] = tested on: Homo sapiens; experiment: Toxicity in healthy human assessed as incidence of nausea at 400 mg, po bid and 800 mg, po qd for 7 days; format: organism-based; settings: in vivo, 168 h
# [22] = Tmax in healthy human at 400 mg, po bid after 1 day; format: ADME, organism-based; settings: in vivo
# [23] = Cmax in fasted state healthy human at 200 mg, po administered as single dose; format: ADME, organism-based; design: dose 200 mg, route oral; settings: in vivo
# [24] = Half life in healthy human at 800 mg, po qd after 1 day; format: ADME, organism-based; settings: in vivo
# [25] = Apparent total volume of distribution in fasted state healthy human at 200 mg, po administered as single dose; format: ADME, organism-based; settings: in vivo, read-out: Vz/F
# [26] = AUC (0 to infinity) in healthy human at 400 mg, po bid after 7 days; format: ADME, organism-based; design: dose 400 mg, route oral, time infinity; settings: plasma
# [27] = Tmax in fasted state healthy human at 200 mg, po administered as single dose; format: ADME, organism-based; settings: in vivo
# [28] = Trough plasma concentration in healthy human at 800 mg, po qd after 7 days; format: ADME, organism-based; settings: read-out: Cmin
# [29] = Apparent total plasma clearance in healthy human at 400 mg, po bid after 7 days; format: ADME, organism-based
# [30] = Cmax in fed state female healthy human at 400 mg, po administered as single dose; format: ADME, organism-based; design: dose 400 mg, route oral; settings: in vivo
# [31] = Plasma concentration in fed state healthy human at 400 mg, po administered as single dose after 24 hrs; format: ADME, organism-based
# [32] = Half life in fed state healthy human at 800 mg, po administered as single dose; format: ADME, organism-based; settings: in vivo
# [33] = Apparent total volume of distribution in healthy human at 800 mg, po qd after 1 day; format: ADME, organism-based; settings: in vivo, read-out: Vz/F
# [34] = Cmax in fasted state healthy human at 100 mg, po administered as single dose; format: ADME, organism-based; design: dose 100 mg, route oral; settings: in vivo
# [35] = Plasma concentration in fed state healthy human at 800 mg, po administered as single dose after 24 hrs; format: ADME, organism-based
# [36] = Apparent total volume of distribution in fed state healthy human at 200 mg, po administered as single dose; format: ADME, organism-based; settings: in vivo, read-out: Vz/F
# [37] = Plasma concentration in fasted state healthy human at 400 mg, po administered as single dose after 24 hrs; format: ADME, organism-based
# [38] = Cmax in healthy human at 800 mg, po qd after 7 days; format: ADME, organism-based; design: dose 800 mg, route oral; settings: in vivo
# [39] = AUC (0 to infinity) in fed state healthy human at 1200 mg, po administered as single dose; format: ADME, organism-based; design: dose 1200 mg, route oral, time infinity; settings: plasma
# [40] = tested on: Homo sapiens; experiment: Toxicity in healthy human assessed as incidence of dizziness at 400 mg, po bid and 800 mg, po qd for 7 days; format: organism-based; settings: in vivo, 168 h
# [41] = Tmax in fed state healthy human at 400 mg, po administered as single dose; format: ADME, organism-based; settings: in vivo
# [42] = Tmax in fed state female healthy human at 400 mg, po administered as single dose; format: ADME, organism-based; settings: in vivo
# [43] = Apparent total plasma clearance in fed state healthy human at 400 mg, po administered as single dose; format: ADME, organism-based
# [44] = tested on: Homo sapiens; experiment: Toxicity in healthy human assessed as occurrence of abnormal dreams at 50 to 1200 mg, po administered as single dose; format: organism-based; settings: in vivo
# [45] = Tmax in fed state healthy human at 800 mg, po administered as single dose; format: ADME, organism-based; settings: in vivo
# [46] = tested on: Homo sapiens; experiment: Toxicity in healthy human assessed as incidence of adverse events at 50 to 1200 mg, po administered as single dose; format: organism-based; settings: in vivo
# [47] = Cmax in healthy human at 400 mg, po bid after 1 day; format: ADME, organism-based; design: dose 400 mg, route oral; settings: in vivo
# [48] = Apparent total volume of distribution in fed state healthy human at 400 mg, po administered as single dose; format: ADME, organism-based; settings: in vivo, read-out: Vz/F
# [49] = Trough plasma concentration in healthy human at 400 mg, po bid after 1 day; format: ADME, organism-based; settings: read-out: Cmin
# [50] = Cmax in fasted state healthy human at 400 mg, po administered as single dose; format: ADME, organism-based; design: dose 400 mg, route oral; settings: in vivo
# [51] = tested on: Human immunodeficiency virus 1; experiment: Antiviral activity against HIV1; format: functional, organism-based
smiles,measurement,setting,value
COP(=O)(c1cc(C)cc(/C=C/C#N)c1)c1c(C(N)=O)[nH]c2ccc(Cl)cc12 (stereo unspecified),Activity,[1],12.5%
same,half-life,[2],13.9 h
same,CL/F,[3],480 mL/min
same,Tmax,[4],7 h
same,Vd/F,[5],366 L
same,half-life,[6],6.2 h
same,half-life,[7],13.6 h
same,Tmax,[8],4 h
same,AUC(0-inf),[9],16800 ng·h/mL
same,concentration at 24 h,[10],2020 ng/mL
same,Activity,[11],> 99.8%
same,concentration at 24 h,[12],190 ng/mL
same,Activity,[13],6.3%
same,CL/F,[14],292 mL/min
same,concentration at 24 h,[15],50 ng/mL
same,half-life,[16],9.8 h
same,CL/F,[17],297 mL/min
same,CL/F,[18],268 mL/min
same,AUC(0-inf),[19],14700 ng·h/mL
same,AUC(0-inf),[20],8800 ng·h/mL
same,Activity,[21],0%
same,Tmax,[22],4 h
same,Cmax,[23],700 ng/mL
same,half-life,[24],8.3 h
same,Vd/F,[25],555 L
same,AUC(0-inf),[26],35200 ng·h/mL
same,Tmax,[27],1.5 h
same,concentration at 168 h,[28],900 ng/mL
same,CL/F,[29],268 mL/min
same,Cmax,[30],1900 ng/mL
same,concentration at 24 h,[31],360 ng/mL
same,half-life,[32],11.5 h
same,Vd/F,[33],151 L
same,Cmax,[34],3000 ng/mL
same,concentration at 24 h,[35],540 ng/mL
same,Vd/F,[36],201 L
same,concentration at 24 h,[37],160 ng/mL
same,Cmax,[38],4600 ng/mL
same,AUC(0-inf),[39],106000 ng·h/mL
same,Activity,[40],0%
same,Tmax,[41],7 h
same,Tmax,[42],5 h
same,CL/F,[43],215 mL/min
same,Activity,[44],2%
same,Tmax,[45],6 h
same,Activity,[46],22.4%
same,Cmax,[47],2000 ng/mL
same,Vd/F,[48],166 L
same,concentration at 24 h,[49],800 ng/mL
same,Cmax,[50],1100 ng/mL
same,IC50,[51],1.2 nM
